Usually Ki stands for the equilibrium dissociation constant of an inhibitor or competing ligand from its target. One may read the inhibition as how much of the control response was suppressed. A word on the IC50: it is the concentration that inhibits the measured activity by half. As usually defined, the Papp is a coefficient for how fast a substance crosses the barrier.

Data on 20 molecules can be found in ChEMBL document CHEMBL4376837, “New Dual Small Molecules for Alzheimer's Disease Therapy Combining Histamine H3 Receptor (H3R) Antagonism and Calcium Channels Blockade with Additional Cholinesterase Inhibition” (J Med Chem, 2019).

Series [1] can be described thus: Antioxidant activity assessed as Trolox equivalents incubated for 15 mins by fluorescein based ORAC-FL assay. In kind it is functional.
Series [2] has as its target Histamine H3 receptor (Homo sapiens, UniProt Q9Y5N1). The series is described as follows: Displacement of [3H]-N-alpha-methylhistamine from human H3 receptor expressed in HEK293 cell membranes incubated for 60 mins by scintillation counting method. In general terms: In a radioligand displacement assay an active substance lowers the binding of a labelled ligand.
Series [3] can be described thus: Inhibition of human recombinant AChE using acetylthiocholine iodide substrate by Ellman's protocol based assay.
Series [4] has as its target Voltage-gated L-type calcium channel (Homo sapiens, UniProt Q13936+Q13698+Q01668+O60840). The series is described as follows: Inhibition of voltage-dependent L-type calcium channel in 70 mM K+-induced human SH-SY5Y cells assessed as blocking of depolarization-induced Ca2+ uptake by Fluo-4/AM dye based fluorescence microplate reader assay. In kind it is cell-based.
Series [5] concerns Aorta. In words: Vasodilating activity in Wistar rat endothelium-denuded aortic rings preconstricted with 100 mM KCl assessed as vasorelaxation at 0.1 nM relative to control. The arrangement: scale not given: the % may be the effect or the level left. The following applies: 0.0001 µM.
Series [6] relates to Aorta. The series is described as follows: Vasodilating activity in Wistar rat endothelium-denuded aortic rings preconstricted with 100 mM KCl assessed as vasorelaxation at 1 nM relative to control. The arrangement: scale not given: the % may be the effect or the level left. The conditions noted are these: 0.001 µM.
The subject of series [7] is Aorta. In words: Vasodilating activity in Wistar rat endothelium-denuded aortic rings preconstricted with 100 mM KCl assessed as vasorelaxation at 10 nM relative to control. The arrangement: scale not given: the % may be the effect or the level left. The conditions noted are these: 0.01 µM.
Series [8] relates to SH-SY5Y. In words: Neuroprotective activity against okadaic acid-induced cytotoxicity in human SH-SY5Y cells assessed as protection against cell death at 3 uM incubated for 24 hrs by MTT assay relative to control. It is filed as functional.
Series [9] concerns the target Cholinesterase (Homo sapiens, UniProt P06276). The series is described as follows: Inhibition of BuChE in human plasma using butyrylthiocholine iodide substrate by Ellman's protocol based assay. In kind it is cell-free. (DTNB colorimetry detects thiols as they appear.)
The subject of series [10] is SH-SY5Y. In words: Neuroprotective activity against okadaic acid-induced cytotoxicity in human SH-SY5Y cells assessed as protection against cell death at 0.3 uM incubated for 24 hrs by MTT assay relative to control. It is filed as functional. Background: Tetrazolium assays rely on reduction of a dye to a coloured formazan, in cell work by metabolically active cells.

In series [11] the test system is SH-SY5Y. In words: Neuroprotective activity against Rotenone/Oligomycin A-induced cytotoxicity in human SH-SY5Y cells assessed as protection against cell death at 0.3 uM incubated for 24 hrs by MTT assay relative to control. In kind it is functional.
Series [12] concerns Mus musculus. In words: Neuroprotective activity in mouse model of LPS-induced induced memory impairment assessed as improvement in discrimination index at 10 mg/kg, ip by novel object recognition test. It is filed as functional, organism-based.
Series [13] addresses Histamine H1 receptor (Homo sapiens) (UniProt P35367). The series is described as follows: Displacement of [3H]-Pyrilamine from human H1 receptor expressed in CHO-K1 cell membranes incubated for 60 mins by scintillation counting method.
Series [14] concerns SH-SY5Y. In words: Neuroprotective activity against okadaic acid-induced cytotoxicity in human SH-SY5Y cells assessed as protection against cell death at 0.1 uM incubated for 24 hrs by MTT assay relative to control. It is filed as functional.
For series [15], the system named is SH-SY5Y. In words: Neuroprotective activity against Rotenone/Oligomycin A-induced cytotoxicity in human SH-SY5Y cells assessed as protection against cell death at 3 uM incubated for 24 hrs by MTT assay relative to control. It is filed as functional.
Series [16] concerns the target Histamine H4 receptor (Homo sapiens, UniProt Q9H3N8). The series is described as follows: Antagonist activity at human H4 receptor expressed in CHO-K1 cells co-expressing G protein alpha16 assessed as inhibition of histamine-induced calcium mobilization incubated for 16 hrs by aequorin-based functional assay. In kind it is cell-based.
Series [17] concerns SH-SY5Y. The series is described as follows: Neuroprotective activity against okadaic acid-induced cytotoxicity in human SH-SY5Y cells assessed as protection against cell death at 1 uM incubated for 24 hrs by MTT assay relative to control. It is filed as functional.
Series [18] can be described thus: Permeability at 100 uM by PAMPA method.
In series [19] the test system is SH-SY5Y. In words: Neuroprotective activity against Rotenone/Oligomycin A-induced cytotoxicity in human SH-SY5Y cells assessed as protection against cell death at 0.1 uM incubated for 24 hrs by MTT assay relative to control. In kind it is functional.
Series [20] has as its system SH-SY5Y. The series is described as follows: Neuroprotective activity against Rotenone/Oligomycin A-induced cytotoxicity in human SH-SY5Y cells assessed as protection against cell death at 1 uM incubated for 24 hrs by MTT assay relative to control. It is filed as functional.
The test system of series [21] is Mus musculus. The series is described as follows: Neuroprotective activity in mouse model of LPS-induced induced memory impairment assessed as improvement in discrimination index at 1 mg/kg, ip by novel object recognition test. It is filed as functional, organism-based.

The structures appear in SMILES notation. Activity calls are given as the source filed them. The calls are words filed in the database; no cut-off is given here. Bounds are passed on as bounds.

Cholinesterase, sequence (P06276 whole entry): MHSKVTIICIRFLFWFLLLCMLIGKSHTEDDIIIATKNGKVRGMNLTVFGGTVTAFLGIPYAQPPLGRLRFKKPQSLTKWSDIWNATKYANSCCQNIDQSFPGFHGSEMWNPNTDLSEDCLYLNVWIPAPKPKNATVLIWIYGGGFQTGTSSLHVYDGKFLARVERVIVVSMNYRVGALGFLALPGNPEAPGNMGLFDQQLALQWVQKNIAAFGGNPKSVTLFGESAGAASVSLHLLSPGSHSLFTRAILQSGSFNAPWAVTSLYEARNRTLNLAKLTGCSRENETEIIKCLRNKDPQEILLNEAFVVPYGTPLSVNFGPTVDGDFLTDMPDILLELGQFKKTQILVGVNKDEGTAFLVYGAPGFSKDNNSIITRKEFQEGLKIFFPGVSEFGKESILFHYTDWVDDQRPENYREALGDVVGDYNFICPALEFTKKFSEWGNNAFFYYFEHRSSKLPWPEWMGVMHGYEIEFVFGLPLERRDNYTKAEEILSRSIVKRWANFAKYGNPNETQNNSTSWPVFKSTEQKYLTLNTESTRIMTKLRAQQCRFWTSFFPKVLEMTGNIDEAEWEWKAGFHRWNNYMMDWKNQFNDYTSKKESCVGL
Histamine H3 receptor, sequence (Q9Y5N1 whole entry): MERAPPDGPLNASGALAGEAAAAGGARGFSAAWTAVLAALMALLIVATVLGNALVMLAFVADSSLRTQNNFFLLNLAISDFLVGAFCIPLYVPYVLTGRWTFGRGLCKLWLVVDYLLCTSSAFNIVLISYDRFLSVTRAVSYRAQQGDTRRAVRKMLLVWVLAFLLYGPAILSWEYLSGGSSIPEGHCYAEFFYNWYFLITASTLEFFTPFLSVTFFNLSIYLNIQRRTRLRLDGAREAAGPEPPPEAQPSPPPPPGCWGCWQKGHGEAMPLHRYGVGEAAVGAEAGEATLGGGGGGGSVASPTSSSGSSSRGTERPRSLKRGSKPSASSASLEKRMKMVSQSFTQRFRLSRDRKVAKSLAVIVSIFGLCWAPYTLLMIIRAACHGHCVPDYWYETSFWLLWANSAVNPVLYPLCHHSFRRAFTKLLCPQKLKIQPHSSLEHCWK
Histamine H4 receptor, sequence (Q9H3N8 whole entry): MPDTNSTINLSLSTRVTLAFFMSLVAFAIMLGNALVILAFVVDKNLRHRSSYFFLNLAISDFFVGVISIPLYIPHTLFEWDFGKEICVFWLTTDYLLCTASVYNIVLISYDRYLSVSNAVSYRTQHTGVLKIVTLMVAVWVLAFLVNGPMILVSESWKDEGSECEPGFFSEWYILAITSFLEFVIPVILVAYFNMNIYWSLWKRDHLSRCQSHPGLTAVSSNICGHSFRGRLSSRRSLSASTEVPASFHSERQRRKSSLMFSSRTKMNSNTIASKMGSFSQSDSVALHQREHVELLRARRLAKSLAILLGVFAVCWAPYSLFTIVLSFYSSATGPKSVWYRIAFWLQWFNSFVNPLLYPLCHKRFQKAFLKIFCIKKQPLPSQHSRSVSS
Histamine H1 receptor (Homo sapiens), sequence (P35367 whole entry): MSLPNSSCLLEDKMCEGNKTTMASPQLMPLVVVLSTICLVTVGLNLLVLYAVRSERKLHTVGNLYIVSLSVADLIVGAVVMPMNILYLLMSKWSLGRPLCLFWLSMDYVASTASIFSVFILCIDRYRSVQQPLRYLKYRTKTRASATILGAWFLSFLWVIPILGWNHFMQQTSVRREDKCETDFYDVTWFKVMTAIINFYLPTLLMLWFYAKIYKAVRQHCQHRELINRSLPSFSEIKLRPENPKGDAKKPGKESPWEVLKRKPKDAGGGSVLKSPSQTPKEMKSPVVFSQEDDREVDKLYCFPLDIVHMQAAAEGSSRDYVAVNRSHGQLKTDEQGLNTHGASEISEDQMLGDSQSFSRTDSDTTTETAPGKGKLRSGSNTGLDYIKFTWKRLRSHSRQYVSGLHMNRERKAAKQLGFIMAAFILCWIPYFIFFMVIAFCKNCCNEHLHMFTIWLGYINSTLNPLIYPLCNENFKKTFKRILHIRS

For the molecule `CCOC(=O)C1=C(C)NC(C)=C(C(=O)OCC)C1c1ccc(OCCCN2CCCCC2)cc1`, in [1], the Activity was found to be 2.3 equiv. The same molecule came in with an inhibitory constant (Ki) in series [2] of 0.04 µM. The inhibition result in series [3] was “inactive”.

For `CCOC(=O)C1=C(C)NC(C)=C(C(=O)OCC)C1c1ccc(OCCCN2CCCC2)c(OC)c1`, the Activity in series [1] came to 2.3 equiv. In addition, the inhibition in series [2] was 23%. Besides, the inhibition result in series [3] is “inactive”.

Regarding `CCOC(=O)C1=C(C)NC(C)=C(C(=O)OCC)C1c1ccc(OCCN2CCCCCC2)c(Cl)c1`, the Activity in [1] is 2.4 equiv. Also, the concentration for half-maximal inhibition (IC50) in series [4] was found to be 4 µM. Moreover, in series [2], the inhibition was determined as 19%. In addition, the inhibition result in series [3] was “inactive”.

Regarding `COC(=O)C1=C(C)NC(C)=C(C(=O)OC)C1c1ccccc1[N+](=O)[O-]` [NIFEDIPINE], the Activity in series [5] (Aorta) was 12%; in series [6] (Aorta), 37%; in series [7] (Aorta), 81%.

On to `CCOC(=O)C1=C(C)NC(C)=C(C(=O)OCC)C1c1ccc(OCCCN2CCCCC2)c(OCC)c1`, for which, in series [1], the Activity was determined as 2.4 equiv. The molecule also displayed a Ki in [2] of 1.62 µM. Also, the inhibition result in series [3] is “inactive”.

For the molecule `CCOC(=O)C1=C(C)NC(C)=C(C(=O)OCC)C1c1ccc(OCCCCCN2CCCC2)cc1`, the Activity in series [8] amounted to 16%; in series [1], 2.8 equiv; in [10], 8.81%; in [11] it was 48.9%; in [14], 7.21%; in [15] it was 35.4%. Moreover, the Activity is 18.5% in [17], 35.5% in [19] and 52.8% in series [20]. Also, the IC50 in series [9] turned out to be 6.07 µM. Also, in series [12], the outcome was inactive. In [2], this molecule came in with a Ki of 0.425 µM. Further, the inhibition entry in [13], in series [3] and in [16] was “inactive” in each case. In series [18], this molecule gave an apparent permeability (Papp) at 100 µM of 10 ×10⁻⁶ cm/s.

Consider `CCOC(=O)C1=C(C)NC(C)=C(C(=O)OCC)C1c1ccc(OCCN2CCCCCC2)c(Br)c1`, for which the Activity in series [1] was 3 equiv. For the same molecule, the 50% inhibitory concentration (IC50) in [4] stood at 1.5 µM. This molecule also displayed an inhibition in [2] of 8%. Further, in series [3], the inhibition entry was “inactive”.

For the molecule `CCOC(=O)C1=C(C)NC(C)=C(C(=O)OCC)C1c1ccc(OCCN2CCCCC2)c(Cl)c1`, the Activity in [1] stood at 2.5 equiv. In addition, the 50% inhibitory concentration (IC50) in [4] came to 2.9 µM. In addition, the inhibition in series [2] turned out to be 17%. Also, the inhibition entry in [3] is “inactive”.

Consider `CCOC(=O)C1=C(C)NC(C)=C(C(=O)OCC)C1c1ccc(OCCCN2CCCC2)c(OCC)c1`, for which, in series [1], the Activity came out at 2.8 equiv. Also, in series [2], the inhibition is 19%. Besides, the inhibition entry in series [3] is “inactive”.

Consider `COc1cc(/C=C/C(=O)O)ccc1O`, for which the Activity in series [1] was 3.7 equiv.

In the case of `COc1ccc2[nH]cc(CCNC(C)=O)c2c1` [MELATONIN], the figures for the Activity in series [14] and in series [19] were 76% and 58.2%, respectively.

`CCOC(=O)C1=C(C)NC(C)=C(C(=O)OCC)C1c1ccc(OCCCCN2CCCC2)cc1` had an IC50 in [9] of 7.22 µM. In [1], the Activity is 3.3 equiv. In series [2], this molecule showed an inhibitory constant (Ki) of 0.06 µM. Besides, the inhibition entry in series [3] is “inactive”.

As to `CCOC(=O)C1=C(C)NC(C)=C(C(=O)OCC)C1c1ccc(OCCN2CCCCC2)c(Br)c1`, the Activity in [1] came to 2.2 equiv. In addition, the IC50 in [4] turned out to be 2.8 µM. Moreover, in series [2], the inhibition is 37%. For the same molecule, in series [3], the inhibition entry was “inactive”.

Regarding `CCOC(=O)C1=C(C)NC(C)=C(C(=O)OCC)C1c1ccc(OCCCN2CCCCC2)c(OC)c1`, the Activity in [1] was found to be 2.3 equiv. In series [2], this molecule returned an inhibition of 20%. Besides, the inhibition entry in series [3] is “inactive”.

On to `CCOC(=O)C1=C(C)NC(C)=C(C(=O)OCC)C1c1ccc(OCCN2CCCCC2)c(OC)c1`, for which the Activity in series [1] amounted to 3.9 equiv. Moreover, the IC50 in series [4] is 26 µM. For the same molecule, in series [2], the inhibition is less than 5%. Moreover, the inhibition result in series [3] was “inactive”.

In the case of `CCOC(=O)C1=C(C)NC(C)=C(C(=O)OCC)C1c1ccc(OCCCCCN2CCCCC2)cc1`, the Activity in series [8] was 20.9%; in series [1] it was 3.6 equiv; in series [11] it was 35.1%; in [15] it was 49.9%; in [5], “Non-Toxic”; in [17], 41.8%. Besides, the Activity entry in series [6] is “Non-Toxic”; in [19] it was 17%; in series [20] it was 64.8%; in series [7], 5%. For the same molecule, the 50% inhibitory concentration (IC50) in series [9] is 7.83 µM; in series [16] it was 1.4 µM. Further, the outcome in [10] and in series [14] was inactive. The outcome in series [12] was Active. The molecule also returned a Ki in series [2] of 0.565 µM. Also, the inhibition entry in [13] and in series [3] was “inactive” throughout. The apparent permeability (Papp) at 100 µM in series [18] was 8.6 ×10⁻⁶ cm/s.

Take `CCOC(=O)C1=C(C)NC(C)=C(C(=O)OCC)C1c1ccc(OCCCCN2CCCCC2)cc1`: the Activity in series [1] was 2.2 equiv. The inhibition in [2] was 49%. Further, the inhibition result in [3] was “inactive”.

In the case of `CCOC(=O)C1=C(C)NC(C)=C(C(=O)OCC)C1c1ccc(OCCN2CCCCC2)cc1`, the Activity in series [1] was 2.4 equiv. This molecule also had an inhibition in series [2] of 18%. The inhibition entry in series [3] was “inactive”.

As to `COc1cc2c(cc1OC)C(=O)C(CC1CCN(Cc3ccccc3)CC1)C2` (stereo not given), in series [21], the outcome was Active.

For `CCOC(=O)C1=C(C)NC(C)=C(C(=O)OCC)C1c1ccc(OCCCN2CCCC2)cc1`, in series [1], the Activity stood at 3.5 equiv. In series [2], this molecule showed an inhibitory constant (Ki) of 0.083 µM. Besides, in series [3], the inhibition result was “inactive”.
